This note sets out measurements from patent US20250051344A1, “BIFUNCTIONAL SELECTIVE DEGRADERS OF SMARCA2 AND THERAPEUTIC USES THEREOF” (Nurix Therapeutics, Inc., priority 2023, published 2025).

Structures are written as SMILES.

One test concerns the target T1, SMARCA2 (Homo sapiens, UniProt P51531).
T1 construct: endogenous in cells
In words: SMARCA2 Cellular Degradation Assay (Western blot analysis on Jess platform). Type of test: cell-based. The note with it: for Dmax / DC50: cellular degradation; for Fold Selectivity SMARCA4/2: ratio DC50 SMARCA4 / DC50 SMARCA2. The method, boiled down: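 Lysates of cells extracted from tumors were prepared in supplemented RIPA buffer, and 5 μg total protein per capillary was analysed by capillary Western (Jess) with anti-SMARCA2 and anti-β-actin antibodies. SMARCA2 electropherogram area was background-subtracted, normalized to actin, and expressed as percent remaining versus vehicle control.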
Background: A western blot detects proteins with antibodies after separation by electrophoresis.

A further test has as its target T2, SMARCA4 (Homo sapiens, UniProt P51532).
T2 construct: endogenous in cells
In words: Cellular degradation assay, SMARCA4 (Table 1). The format is cell-based.

T2 sequence (P51532 whole entry, species assumed): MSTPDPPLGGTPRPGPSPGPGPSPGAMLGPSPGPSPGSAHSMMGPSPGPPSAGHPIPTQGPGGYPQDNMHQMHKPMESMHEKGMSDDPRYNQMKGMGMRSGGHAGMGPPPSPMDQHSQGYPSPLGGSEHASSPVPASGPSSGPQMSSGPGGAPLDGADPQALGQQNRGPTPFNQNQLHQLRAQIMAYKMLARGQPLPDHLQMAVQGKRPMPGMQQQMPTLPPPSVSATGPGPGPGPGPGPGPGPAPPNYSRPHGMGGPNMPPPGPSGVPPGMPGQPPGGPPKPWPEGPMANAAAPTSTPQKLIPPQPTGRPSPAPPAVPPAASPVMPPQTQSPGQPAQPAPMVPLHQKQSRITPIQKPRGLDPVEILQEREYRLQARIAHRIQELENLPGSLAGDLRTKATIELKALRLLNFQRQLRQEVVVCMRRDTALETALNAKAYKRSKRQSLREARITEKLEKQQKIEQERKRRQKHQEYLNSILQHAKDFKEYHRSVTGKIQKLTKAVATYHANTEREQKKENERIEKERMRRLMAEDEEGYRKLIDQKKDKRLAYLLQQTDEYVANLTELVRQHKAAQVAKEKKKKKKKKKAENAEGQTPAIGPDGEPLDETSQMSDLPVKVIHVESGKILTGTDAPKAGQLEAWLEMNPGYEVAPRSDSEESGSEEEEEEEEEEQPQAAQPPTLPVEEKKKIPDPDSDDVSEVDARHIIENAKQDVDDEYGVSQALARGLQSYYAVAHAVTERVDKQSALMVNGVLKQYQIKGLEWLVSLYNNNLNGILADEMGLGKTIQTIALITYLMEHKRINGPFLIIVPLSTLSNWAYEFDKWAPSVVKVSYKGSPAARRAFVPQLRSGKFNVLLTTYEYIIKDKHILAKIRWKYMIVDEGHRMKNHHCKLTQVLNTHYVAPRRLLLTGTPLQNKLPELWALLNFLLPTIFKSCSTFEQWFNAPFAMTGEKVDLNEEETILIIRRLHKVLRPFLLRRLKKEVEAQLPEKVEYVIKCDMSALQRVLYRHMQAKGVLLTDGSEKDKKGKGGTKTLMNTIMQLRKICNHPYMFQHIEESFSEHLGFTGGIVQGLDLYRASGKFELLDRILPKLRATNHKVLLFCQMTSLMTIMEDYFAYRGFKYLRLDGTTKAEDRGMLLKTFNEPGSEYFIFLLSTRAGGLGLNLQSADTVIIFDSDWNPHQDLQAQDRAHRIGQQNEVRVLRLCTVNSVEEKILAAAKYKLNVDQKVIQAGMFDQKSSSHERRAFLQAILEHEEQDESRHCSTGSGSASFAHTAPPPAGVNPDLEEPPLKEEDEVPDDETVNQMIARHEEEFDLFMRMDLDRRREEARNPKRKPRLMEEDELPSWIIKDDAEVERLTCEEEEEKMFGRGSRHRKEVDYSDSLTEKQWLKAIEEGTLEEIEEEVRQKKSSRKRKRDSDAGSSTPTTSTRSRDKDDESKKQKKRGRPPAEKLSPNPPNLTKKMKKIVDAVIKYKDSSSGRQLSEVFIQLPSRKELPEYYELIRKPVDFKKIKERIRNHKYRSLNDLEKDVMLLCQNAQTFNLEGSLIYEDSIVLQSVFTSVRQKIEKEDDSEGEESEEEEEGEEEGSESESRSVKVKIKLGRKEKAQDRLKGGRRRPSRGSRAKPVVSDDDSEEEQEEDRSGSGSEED
T1 sequence (P51531 whole entry, species assumed): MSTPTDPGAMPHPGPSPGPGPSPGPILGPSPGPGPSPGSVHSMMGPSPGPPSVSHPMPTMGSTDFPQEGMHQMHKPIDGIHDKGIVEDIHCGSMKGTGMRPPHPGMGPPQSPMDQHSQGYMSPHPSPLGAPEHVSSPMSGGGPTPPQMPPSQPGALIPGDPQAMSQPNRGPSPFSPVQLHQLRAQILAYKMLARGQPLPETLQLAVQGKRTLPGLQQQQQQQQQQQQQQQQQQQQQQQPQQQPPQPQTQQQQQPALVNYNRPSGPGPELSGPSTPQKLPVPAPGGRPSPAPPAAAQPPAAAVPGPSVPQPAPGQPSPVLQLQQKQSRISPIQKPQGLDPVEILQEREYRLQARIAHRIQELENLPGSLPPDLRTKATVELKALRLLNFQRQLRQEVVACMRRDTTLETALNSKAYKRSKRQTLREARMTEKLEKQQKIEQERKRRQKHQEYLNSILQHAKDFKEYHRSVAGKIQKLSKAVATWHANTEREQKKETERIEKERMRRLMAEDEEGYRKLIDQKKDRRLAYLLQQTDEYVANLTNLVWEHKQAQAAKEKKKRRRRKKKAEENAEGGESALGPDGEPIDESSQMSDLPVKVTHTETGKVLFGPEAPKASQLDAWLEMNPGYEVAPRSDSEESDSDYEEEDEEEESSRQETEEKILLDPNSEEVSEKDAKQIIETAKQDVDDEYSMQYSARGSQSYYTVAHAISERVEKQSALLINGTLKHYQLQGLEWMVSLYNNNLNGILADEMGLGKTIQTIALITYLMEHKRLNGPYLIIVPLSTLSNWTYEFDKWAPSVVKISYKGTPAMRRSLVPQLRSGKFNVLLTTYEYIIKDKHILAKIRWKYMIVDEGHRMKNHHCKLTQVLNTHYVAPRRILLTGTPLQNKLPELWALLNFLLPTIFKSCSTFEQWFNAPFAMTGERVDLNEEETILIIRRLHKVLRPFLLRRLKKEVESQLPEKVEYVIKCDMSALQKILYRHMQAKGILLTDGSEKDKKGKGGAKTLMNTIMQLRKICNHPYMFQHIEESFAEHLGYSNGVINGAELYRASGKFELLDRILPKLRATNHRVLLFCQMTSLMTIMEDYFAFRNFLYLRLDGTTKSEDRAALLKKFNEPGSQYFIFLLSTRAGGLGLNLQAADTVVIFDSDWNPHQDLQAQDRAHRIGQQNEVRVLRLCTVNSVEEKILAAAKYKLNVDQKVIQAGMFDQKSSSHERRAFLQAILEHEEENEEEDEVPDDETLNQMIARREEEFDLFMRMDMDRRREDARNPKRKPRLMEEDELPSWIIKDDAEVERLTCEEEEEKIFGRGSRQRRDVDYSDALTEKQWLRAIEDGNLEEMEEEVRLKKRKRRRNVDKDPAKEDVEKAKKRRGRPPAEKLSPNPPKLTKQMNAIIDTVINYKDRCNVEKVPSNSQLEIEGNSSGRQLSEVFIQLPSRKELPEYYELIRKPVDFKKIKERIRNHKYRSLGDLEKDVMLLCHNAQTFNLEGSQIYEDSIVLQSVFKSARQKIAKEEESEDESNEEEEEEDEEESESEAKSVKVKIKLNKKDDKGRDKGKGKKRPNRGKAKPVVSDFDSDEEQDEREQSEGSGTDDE

Usually Dmax stands for the largest share of the target that was removed. For `O=C1CC[C@H](c2ccc(N3CCC(CN4CCCC5C4CCCN5C(=O)C4(c5ccccc5)CCN(c5cnnc(-c6ccccc6O)c5)CC4)CC3)cc2)C(=O)N1` (stereo partly drawn) [Example 41, (3R)-3-(4-{4-[(5-{1-[6-(2-hydroxyphenyl)pyridazin-4-yl]-4-phenylpiperidine-4-carbonyl}-decahydro-1,5-naphthyridin-1-yl)methyl]piperidin-1-yl}phenyl)piperidine-2,6-dione], the Dmax at SMARCA2 was determined as 36.8%; on SMARCA4, 41%. Also, the “Fold Selectivity SMARCA4/2” value on SMARCA2 was determined as 1.
The DC50 is the midpoint of the concentration-degradation curve. High values mean a less potent degrader, low ones a more potent degrader. On to `O=C1CC[C@H](c2ccc(N3CCC(CN[C@H]4CC[C@H](NC(=O)C5(c6ccccc6)CCN(c6cnnc(-c7ccccc7O)c6)CC5)CC4)CC3)cc2)C(=O)N1` (racemic) [Example 175, 1-[6-(2-hydroxyphenyl)pyridazin-4-yl]-4-phenyl-N-[(1r,4r)-4-{[(1-{4-[(3RS)-2,6-dioxopiperidin-3-yl]phenyl}piperidin-4-yl)methyl]amino}cyclohexyl]piperidine-4-carboxamide], for which, at SMARCA2, half-maximal degradation (DC50) was put at 29.8 nM, the Dmax was 60.2% and the “Fold Selectivity SMARCA4/2” value is 335. On SMARCA4, this compound came in with a Dmax of 35.6%.
In the same order, the values of `COC1(C(=O)N(C)C2CCN(CCC3CCN(c4ccc(C5CCC(=O)NC5=O)c(F)c4)CC3)CC2)CCN(c2cnnc(-c3ccccc3O)c2)CC1` (racemic) [Example 71, rac-N-(1-(2-(1-(4-(2,6-dioxopiperidin-3-yl)-3-fluorophenyl)piperidin-4-yl)ethyl)piperidin-4-yl)-1-(6-(2-hydroxyphenyl)pyridazin-4-yl)-4-methoxy-n-methylpiperidine-4-carboxamide] are 8.07 nM, 81.6%, 1239 and 32.2%.
The like results for `Cn1ccc(OC2(C(=O)N3CCC4(CC3)CN(CCC3CCN(c5ccc(C6CCC(=O)NC6=O)cc5)CC3)C4)CCN(c3cnnc(-c4ccccc4O)c3)CC2)n1` (racemic) [Example 128, rac-3-(4-(4-(2-(7-(1-(6-(2-hydroxyphenyl)pyridazin-4-yl)-4-((1-methyl-1h-pyrazol-3-yl)oxy)piperidine-4-carbonyl)-2,7-diazaspiro[3.5]nonan-2-yl)ethyl)piperidin-1-yl)phenyl)piperidine-2,6-dione] were, in that order, 11.1 nM, 71.6%, 899 and 39.1%.
As to `O=C1CC[C@H](c2ccc(N3CCC(CCN4CCC(Oc5ccccc5)(C(=O)NCC5(c6ccccc6)CCN(c6cnnc(-c7ccccc7O)c6)CC5)CC4)CC3)cc2)C(=O)N1` (racemic) [Example 103, rac-(r)-1-(2-(1-(4-(2,6-dioxopiperidin-3-yl)phenyl)piperidin-4-yl)ethyl)-n-((1-(6-(2-hydroxyphenyl)pyridazin-4-yl)-4-phenylpiperidin-4-yl)methyl)-4-phenoxypiperidine-4-carboxamide], on SMARCA2, it took 15.7 nM to reach half-maximal degradation (DC50), the Dmax amounted to 87.4% and the “Fold Selectivity SMARCA4/2” value was 8. In addition, at SMARCA4, it took 129 nM to reach half-maximal degradation (DC50) and the Dmax came out at 68.4%.
Consider `CN(C(=O)C1(c2ccccc2)CCN(c2cnnc(-c3ccccc3O)c2)CC1)C1CCN([C@@H]2COC3(CCN(c4ccc([C@H]5CCC(=O)NC5=O)cc4)CC3)C2)CC1` (single isomer, unassigned) [Example 148], for which, at SMARCA2, the DC50 was 6.84 nM, the Dmax worked out at 83% and the “Fold Selectivity SMARCA4/2” value came out at 1462. Besides, the Dmax on SMARCA4 stood at 41.4%.
Regarding `O=C1CCC(c2c(F)cc(N3CCC(CN4CC[C@@H](NC(=O)C5(c6ccccc6)CCN(c6cnnc(-c7ccccc7O)c6)CC5)CC45CCC5)CC3)cc2F)C(=O)N1` (mixture of isomers) [Example 188, N-[(8RS&)-5-[(1-{4-[(3RS)-2,6-dioxopiperidin-3-yl]-3,5-difluorophenyl}piperidin-4-yl)methyl]-5-azaspiro[3.5]nonan-8-yl]-1-[6-(2-hydroxyphenyl)pyridazin-4-yl]-4-phenylpiperidine-4-carboxamide], at SMARCA2, half-maximal degradation (DC50) was put at 1.71 nM, the Dmax came to 90.6% and the “Fold Selectivity SMARCA4/2” value was 143. In addition, at SMARCA4, half-maximal degradation (DC50) was put at 245 nM and the Dmax was 57.8%.
For `O=C1CCC(c2ccc(N3CCC(C(=O)N4CC5(C4)CN(C(=O)C4(c6ccccc6)CCN(c6cnnc(-c7ccccc7O)c6)CC4)C5)CC3)cc2)C(=O)N1` (racemic) [Example 20, rac-(3R)-3-{4-[4-(6-{1-[6-(2-hydroxyphenyl)pyridazin-4-yl]-4-phenylpiperidine-4-carbonyl}-2,6-diazaspiro[3.3]heptane-2-carbonyl)piperidin-1-yl]phenyl}piperidine-2,6-dione], on SMARCA2, the DC50 turned out to be 24.6 nM, the greatest degradation seen (Dmax) was 67.5% and the “Fold Selectivity SMARCA4/2” value is 406.6. This compound had a Dmax at SMARCA4 of 48.3%.
The like results for `O=C1CCC(c2ccc(OCC3CCN(CC4CCN(C(=O)C5(c6ccccc6)CCN(c6cnnc(-c7ccccc7O)c6)CC5)CC4)CC3)cc2)C(=O)N1` (racemic) [Example 11, rac-(3R)-3-[4-({1-[(1-{1-[6-(2-hydroxyphenyl)pyridazin-4-yl]-4-phenylpiperidine-4-carbonyl}piperidin-4-yl)methyl]piperidin-4-yl}methoxy)phenyl]piperidine-2,6-dione] were, in that order, 21.2 nM, 69.1%, 472.68 and 38.9%.
In the same order, the values of `Cc1cc(C2(C(=O)N(C)C3CCN(CCC4CCN(c5ccc(C6CCC(=O)NC6=O)c(F)c5)CC4)CC3)CCN(c3cnnc(-c4ccccc4O)c3)CC2)on1` (racemic) [Example 60, rac-N-{1-[2-(1-{4-[(3R)-2,6-dioxopiperidin-3-yl]-3-fluorophenyl}piperidin-4-yl)ethyl]piperidin-4-yl}-1-[6-(2-hydroxyphenyl)pyridazin-4-yl]-N-methyl-4-(3-methyl-1,2-oxazol-5-yl)piperidine-4-carboxamide] are 3.79 nM, 85.7%, 2639 and 35.7%.
With `O=C1CC[C@H](c2ccc(N3CCC(CN4CCCC4C4CCCN(C(=O)C5(c6ccccc6)CCN(c6cnnc(-c7ccccc7O)c6)CC5)C4)CC3)cc2)C(=O)N1` (stereo partly drawn) [Example 37, (3R)-3-[4-(4-{[2-(1-{1-[6-(2-hydroxyphenyl)pyridazin-4-yl]-4-phenylpiperidine-4-carbonyl}piperidin-3-yl)pyrrolidin-1-yl]methyl}piperidin-1-yl)phenyl]piperidine-2,6-dione], at SMARCA2, the Dmax is 47.5% and the “Fold Selectivity SMARCA4/2” value is on record as 1. Further, the Dmax on SMARCA4 was determined as 33.1%.
As for `CN(C(=O)C1(c2cnn(C)c2)CCN(c2cnnc(-c3ccccc3O)c2)CC1)C1CCN(CC2CCN(c3ccc(C4CCC(=O)NC4=O)cc3)CC2)CC1` (racemic) [Example 89, rac-N-{1-[(1-{4-[(3R)-2,6-dioxopiperidin-3-yl]phenyl}piperidin-4-yl)methyl]piperidin-4-yl}-1-[6-(2-hydroxyphenyl)pyridazin-4-yl]-N-methyl-4-(1-methyl-1H-pyrazol-4-yl)piperidine-4-carboxamide], on SMARCA2, the DC50 was determined as 3.8 nM, the Dmax was determined as 82.1% and the “Fold Selectivity SMARCA4/2” value stood at 2634. Further, the Dmax at SMARCA4 stood at 47.3%.
